# Measurements from ChEMBL document CHEMBL4376834, “Discovery of 4H-Chromen-4-one Derivatives as a New Class of Selective Rho Kinase (ROCK) Inhibitors, which Showed Potent Activity in ex Vivo Diabetic Retinopathy Models” (J Med Chem, 2019).
# Key:
# [1] = target: STE20-like serine/threonine-protein kinase (Homo sapiens, UniProt Q9H2G2); assay: Inhibition of recombinant human SLK (1 to 373 residues) using RLGRDKYKTLRQI as substrate incubated for 40 mins in presence of [gamma33P]ATP by radiometric scintillation counting analysis
# [2] = Inhibition of recombinant human MER H628Q/R794A double mutant (557 to 882 residues) using KKLNRTLSFAEPG as substrate incubated for 40 mins in presence of [gamma-33ATP by radiometric scintillation counting analysis
# [3] = target: Ribosomal protein S6 kinase alpha-5 (Homo sapiens, UniProt O75582); assay: Inhibition of recombinant human MSK1 (2 to end residues) using GRPRTSSFAEGKK as substrate incubated for 40 mins in presence of [gamma-33ATP by radiometric scintillation counting analysis
# [4] = target: Rho-associated protein kinase 2 (Homo sapiens, UniProt O75116); assay: Inhibition of recombinant human ROCK2 (11 to 552 residues) using KEAKEKRQEQIAKR as substrate incubated for 40 mins in presence of [gamma-33P]ATP and 10 uM ATP by radiometric scintillation counting analysis
# Rho-associated protein kinase 2, sequence (O75116 whole entry, the tested form may be a part): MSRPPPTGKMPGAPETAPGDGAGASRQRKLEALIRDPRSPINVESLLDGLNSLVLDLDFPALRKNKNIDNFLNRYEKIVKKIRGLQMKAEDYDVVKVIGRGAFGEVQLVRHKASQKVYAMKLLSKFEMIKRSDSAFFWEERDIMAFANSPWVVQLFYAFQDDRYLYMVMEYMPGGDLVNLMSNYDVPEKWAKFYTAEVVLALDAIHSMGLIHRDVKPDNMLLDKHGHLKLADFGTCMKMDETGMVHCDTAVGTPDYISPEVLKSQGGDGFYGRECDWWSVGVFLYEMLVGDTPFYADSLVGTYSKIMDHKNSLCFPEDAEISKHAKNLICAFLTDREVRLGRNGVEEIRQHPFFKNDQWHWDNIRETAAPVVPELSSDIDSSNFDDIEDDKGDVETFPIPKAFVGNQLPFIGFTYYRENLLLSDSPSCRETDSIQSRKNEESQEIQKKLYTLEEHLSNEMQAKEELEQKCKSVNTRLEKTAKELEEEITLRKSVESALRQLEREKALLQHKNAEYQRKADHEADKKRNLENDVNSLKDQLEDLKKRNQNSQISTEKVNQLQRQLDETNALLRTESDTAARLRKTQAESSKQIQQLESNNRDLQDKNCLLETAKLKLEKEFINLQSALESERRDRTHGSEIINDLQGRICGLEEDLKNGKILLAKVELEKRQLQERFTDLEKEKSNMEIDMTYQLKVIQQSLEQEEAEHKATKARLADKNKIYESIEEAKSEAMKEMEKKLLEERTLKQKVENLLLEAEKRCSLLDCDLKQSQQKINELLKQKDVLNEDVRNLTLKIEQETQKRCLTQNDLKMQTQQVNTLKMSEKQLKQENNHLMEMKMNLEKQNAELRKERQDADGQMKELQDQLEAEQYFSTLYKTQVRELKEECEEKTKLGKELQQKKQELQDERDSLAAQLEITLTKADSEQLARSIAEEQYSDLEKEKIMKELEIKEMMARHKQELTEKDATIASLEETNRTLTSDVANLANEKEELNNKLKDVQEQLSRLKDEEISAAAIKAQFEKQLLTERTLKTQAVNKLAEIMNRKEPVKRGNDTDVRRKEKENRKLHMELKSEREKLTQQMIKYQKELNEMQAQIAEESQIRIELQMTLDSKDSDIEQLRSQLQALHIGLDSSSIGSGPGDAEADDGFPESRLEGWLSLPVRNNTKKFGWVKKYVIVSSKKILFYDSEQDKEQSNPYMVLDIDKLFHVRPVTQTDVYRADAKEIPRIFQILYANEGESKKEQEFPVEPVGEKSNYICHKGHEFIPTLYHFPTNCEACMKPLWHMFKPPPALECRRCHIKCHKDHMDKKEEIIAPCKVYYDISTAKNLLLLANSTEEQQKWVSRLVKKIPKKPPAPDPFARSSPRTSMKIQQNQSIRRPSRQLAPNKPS
# [5] = target: MAP/microtubule affinity-regulating kinase 3 (Homo sapiens, UniProt P27448); assay: Inhibition of recombinant full length human MARK3 using KKKVSRSGLYRSP as substrate incubated for 40 mins in presence of [gamma-33ATP by radiometric scintillation counting analysis
# MAP/microtubule affinity-regulating kinase 3, sequence (P27448 whole entry): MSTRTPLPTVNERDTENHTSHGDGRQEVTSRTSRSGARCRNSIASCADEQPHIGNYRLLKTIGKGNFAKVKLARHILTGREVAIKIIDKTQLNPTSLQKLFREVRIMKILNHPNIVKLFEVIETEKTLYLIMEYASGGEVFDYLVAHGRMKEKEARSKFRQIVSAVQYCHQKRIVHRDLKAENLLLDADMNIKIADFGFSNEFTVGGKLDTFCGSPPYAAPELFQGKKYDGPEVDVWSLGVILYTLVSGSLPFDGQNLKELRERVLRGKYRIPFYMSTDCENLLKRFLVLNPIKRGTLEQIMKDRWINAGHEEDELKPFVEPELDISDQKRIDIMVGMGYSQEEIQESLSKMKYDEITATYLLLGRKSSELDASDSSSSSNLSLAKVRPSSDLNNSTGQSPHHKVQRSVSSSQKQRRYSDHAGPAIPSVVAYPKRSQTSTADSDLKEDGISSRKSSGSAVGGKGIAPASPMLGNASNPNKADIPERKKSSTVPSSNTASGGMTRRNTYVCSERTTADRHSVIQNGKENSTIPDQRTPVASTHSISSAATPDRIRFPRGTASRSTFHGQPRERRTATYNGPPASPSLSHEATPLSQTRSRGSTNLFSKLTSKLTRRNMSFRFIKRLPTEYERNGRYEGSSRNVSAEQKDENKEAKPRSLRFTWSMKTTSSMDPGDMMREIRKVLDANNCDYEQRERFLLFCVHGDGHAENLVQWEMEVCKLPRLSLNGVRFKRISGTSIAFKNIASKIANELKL
# [6] = target: NUAK family SNF1-like kinase 2 (Homo sapiens, UniProt Q9H093); assay: Inhibition of recombinant human full length NUAK2 using KKKVSRSGLYRSP as substrate measured after 40 mins in presence of [gamma33P]ATP by radiometric scintillation counting analysis
# [7] = target: Serine/threonine-protein kinase Nek3 (Homo sapiens, UniProt P51956); assay: Inhibition of recombinant full-length human NEK3 using myelin basic protein as substrate measured after 40 mins in presence of [gamma33P]ATP by radiometric scintillation counting analysis
# [8] = Inhibition of recombinant full length human PKBalpha S478G mutant using GRPRTSSFAEGKK as substrate incubated for 40 mins in presence of [gamma33P]ATP by radiometric scintillation counting analysis
# [9] = target: Serine/threonine-protein kinase PAK 3 (Homo sapiens, UniProt O75914); assay: Inhibition of recombinant full-length human PAK3 using RRRLSFAEPG as substrate measured after 40 mins in presence of [gamma33P]ATP by radiometric scintillation counting analysis
# Serine/threonine-protein kinase PAK 3, sequence (O75914 whole entry): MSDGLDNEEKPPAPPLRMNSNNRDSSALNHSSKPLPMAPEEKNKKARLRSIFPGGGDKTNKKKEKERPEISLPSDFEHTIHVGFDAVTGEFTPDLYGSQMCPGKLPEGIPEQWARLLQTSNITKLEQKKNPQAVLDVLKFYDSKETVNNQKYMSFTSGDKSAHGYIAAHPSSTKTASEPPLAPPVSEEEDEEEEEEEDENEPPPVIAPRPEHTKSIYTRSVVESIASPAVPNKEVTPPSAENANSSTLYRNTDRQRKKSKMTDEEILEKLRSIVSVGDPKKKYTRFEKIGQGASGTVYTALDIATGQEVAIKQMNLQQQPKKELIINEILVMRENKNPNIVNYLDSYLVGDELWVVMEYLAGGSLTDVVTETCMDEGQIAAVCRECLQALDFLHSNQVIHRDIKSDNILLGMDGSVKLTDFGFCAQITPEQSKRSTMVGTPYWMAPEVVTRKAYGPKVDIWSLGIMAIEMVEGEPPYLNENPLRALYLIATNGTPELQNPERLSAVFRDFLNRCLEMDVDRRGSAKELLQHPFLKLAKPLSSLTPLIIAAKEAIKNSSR
# [10] = target: Mast/stem cell growth factor receptor Kit (Homo sapiens, UniProt P10721, V654A); assay: Inhibition of recombinant human C-Kit V654A mutant (544 to end residues) using poly(Glu, Tyr) 4:1 as substrate incubated 40 mins in presence of [gamma-33ATP] by radiometric scintillation counting analysis
# [11] = Intrinsic clearance in human liver microsomes measured upto 45 mins in presence of NADPH by LC-MS analysis; type: ADME, Microsome; settings: read-out: CLH
# [12] = target: Dual specificity mitogen-activated protein kinase kinase 6 (Homo sapiens, UniProt P52564); assay: Inhibition of recombinant human MKK6 (4 to end residues) using SAPK2 as substrate incubated for 40 mins by radiometric scintillation counting analysis
# Dual specificity mitogen-activated protein kinase kinase 6, sequence (P52564 whole entry): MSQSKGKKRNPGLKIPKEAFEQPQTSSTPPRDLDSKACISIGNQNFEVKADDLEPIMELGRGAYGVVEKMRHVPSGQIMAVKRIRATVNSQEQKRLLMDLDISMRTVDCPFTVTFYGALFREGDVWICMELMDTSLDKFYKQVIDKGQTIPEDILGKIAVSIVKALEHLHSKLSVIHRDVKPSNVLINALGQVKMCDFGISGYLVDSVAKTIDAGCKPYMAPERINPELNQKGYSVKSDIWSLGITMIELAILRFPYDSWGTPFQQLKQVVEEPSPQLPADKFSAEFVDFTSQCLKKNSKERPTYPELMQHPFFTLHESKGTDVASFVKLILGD
# [13] = target: Serine/threonine-protein kinase pim-3 (Homo sapiens, UniProt Q86V86); assay: Inhibition of recombinant human Pim3 (2 to end residues) using RSRHSSYPAGT as substrate incubated for 40 mins in presence of [gamma33P]ATP by radiometric scintillation counting analysis
# [14] = target: Inhibitor of nuclear factor kappa-B kinase subunit epsilon (Homo sapiens, UniProt Q14164); assay: Inhibition of recombinant full length human IKKepsilon using casein as substrate after 40 mins by [gamma-33ATP] by radiometric scintillation counting analysis
# Inhibitor of nuclear factor kappa-B kinase subunit epsilon, sequence (Q14164 whole entry): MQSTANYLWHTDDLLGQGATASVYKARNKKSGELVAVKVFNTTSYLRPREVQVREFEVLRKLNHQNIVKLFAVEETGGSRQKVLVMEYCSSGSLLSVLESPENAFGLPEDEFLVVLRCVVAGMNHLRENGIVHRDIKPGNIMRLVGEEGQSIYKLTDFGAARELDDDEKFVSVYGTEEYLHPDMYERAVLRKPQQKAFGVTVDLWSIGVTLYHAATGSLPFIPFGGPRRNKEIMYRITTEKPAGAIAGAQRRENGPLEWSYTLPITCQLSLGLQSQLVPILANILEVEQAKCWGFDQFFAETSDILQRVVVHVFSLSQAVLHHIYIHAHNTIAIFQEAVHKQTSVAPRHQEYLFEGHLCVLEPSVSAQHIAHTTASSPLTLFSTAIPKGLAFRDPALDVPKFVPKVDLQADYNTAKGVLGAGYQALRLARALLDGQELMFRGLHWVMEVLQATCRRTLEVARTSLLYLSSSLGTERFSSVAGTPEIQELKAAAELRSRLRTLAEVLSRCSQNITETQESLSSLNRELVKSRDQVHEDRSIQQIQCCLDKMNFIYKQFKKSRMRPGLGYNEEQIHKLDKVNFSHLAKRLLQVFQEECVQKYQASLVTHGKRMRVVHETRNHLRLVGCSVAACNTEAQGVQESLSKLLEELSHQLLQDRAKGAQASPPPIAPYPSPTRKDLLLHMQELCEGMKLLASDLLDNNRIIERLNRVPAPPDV
# [15] = target: Serine/threonine-protein kinase PRP4 homolog (Homo sapiens, UniProt Q13523); assay: Inhibition of recombinant human PRP4 (663 to end residues) using casein as substrate incubated for 40 mins in presence of [gamma33P]ATP by radiometric scintillation counting analysis
# [16] = target: Cyclin-dependent kinase-like 3 (Homo sapiens, UniProt Q8IVW4); assay: Inhibition of recombinant full length human CDKL3 using RRRFRPASPLRGPPK as substrate incubated for 120 mins in presence of [gamma-33ATP] by radiometric scintillation counting analysis
# Ephrin type-B receptor 1 = Ephrin type-B receptor 1 (Homo sapiens, UniProt P54762); assay: Inhibition of recombinant human EphB1 (564 to end residues) using […] as substrate after 40 mins in presence of [gamma-33ATP] by radiometric scintillation counting analysis
# [17] = target: Dual specificity mitogen-activated protein kinase kinase 7 (Homo sapiens, UniProt O14733); assay: Inhibition of recombinant human MKK7 (2 to end residues) using inactive JNK1a1 as substrate incubated for 40 mins by radiometric scintillation counting analysis
# [18] = Intrinsic clearance in rat liver microsomes measured upto 45 mins in presence of NADPH by LC-MS analysis; type: ADME, Microsome; settings: read-out: CLH
# [19] = Inhibition of activated recombinant human TEC F514V mutant (174 to end residues) using EFPIYDFLPAKKK as substrate incubated for 40 mins in presence of [gamma33P]ATP by radiometric scintillation counting analysis
# [20] = target: Fibroblast growth factor receptor 2 (Homo sapiens, UniProt P21802); assay: Inhibition of recombinant human FGFR2 (456 to 770 residues) using poly(Glu, Tyr) 4:1 as substrate after 40 mins in presence of [gamma-33ATP] by radiometric scintillation counting analysis
# [21] = target: Testis-specific serine/threonine-protein kinase 1 (Homo sapiens, UniProt Q9BXA7); assay: Inhibition of recombinant full-length human TSSK1 using KKKVSRSGLYRSP as substrate incubated for 40 mins in presence of [gamma33P]ATP by radiometric scintillation counting analysis
# Testis-specific serine/threonine-protein kinase 1, sequence (Q9BXA7 whole entry): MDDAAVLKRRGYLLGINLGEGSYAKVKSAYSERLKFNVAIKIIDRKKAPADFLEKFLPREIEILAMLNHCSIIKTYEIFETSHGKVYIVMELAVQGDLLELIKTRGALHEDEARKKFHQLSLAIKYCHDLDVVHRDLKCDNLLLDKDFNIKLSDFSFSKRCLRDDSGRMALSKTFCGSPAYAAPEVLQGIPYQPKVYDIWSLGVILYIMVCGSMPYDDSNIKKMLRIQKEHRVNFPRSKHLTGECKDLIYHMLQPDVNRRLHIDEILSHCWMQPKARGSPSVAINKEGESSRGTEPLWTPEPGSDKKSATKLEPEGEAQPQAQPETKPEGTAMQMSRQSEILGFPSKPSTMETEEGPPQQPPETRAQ
# [22] = target: Serine/threonine-protein kinase Sgk1 (Homo sapiens, UniProt O00141, S422D); assay: Inhibition of recombinant human SGK S422D mutant (60 to end residues) using GRPRTSSFAEGKK as substrate incubated for 40 mins in presence of [gamma33P]ATP by radiometric scintillation counting analysis
# [23] = target: MAP/microtubule affinity-regulating kinase 4 (Homo sapiens, UniProt Q96L34); assay: Inhibition of recombinant full length human MARK4 using KKKVSRSGLYRSP as substrate incubated for 40 mins in presence of [gamma-33ATP by radiometric scintillation counting analysis
# MAP/microtubule affinity-regulating kinase 4, sequence (Q96L34 whole entry): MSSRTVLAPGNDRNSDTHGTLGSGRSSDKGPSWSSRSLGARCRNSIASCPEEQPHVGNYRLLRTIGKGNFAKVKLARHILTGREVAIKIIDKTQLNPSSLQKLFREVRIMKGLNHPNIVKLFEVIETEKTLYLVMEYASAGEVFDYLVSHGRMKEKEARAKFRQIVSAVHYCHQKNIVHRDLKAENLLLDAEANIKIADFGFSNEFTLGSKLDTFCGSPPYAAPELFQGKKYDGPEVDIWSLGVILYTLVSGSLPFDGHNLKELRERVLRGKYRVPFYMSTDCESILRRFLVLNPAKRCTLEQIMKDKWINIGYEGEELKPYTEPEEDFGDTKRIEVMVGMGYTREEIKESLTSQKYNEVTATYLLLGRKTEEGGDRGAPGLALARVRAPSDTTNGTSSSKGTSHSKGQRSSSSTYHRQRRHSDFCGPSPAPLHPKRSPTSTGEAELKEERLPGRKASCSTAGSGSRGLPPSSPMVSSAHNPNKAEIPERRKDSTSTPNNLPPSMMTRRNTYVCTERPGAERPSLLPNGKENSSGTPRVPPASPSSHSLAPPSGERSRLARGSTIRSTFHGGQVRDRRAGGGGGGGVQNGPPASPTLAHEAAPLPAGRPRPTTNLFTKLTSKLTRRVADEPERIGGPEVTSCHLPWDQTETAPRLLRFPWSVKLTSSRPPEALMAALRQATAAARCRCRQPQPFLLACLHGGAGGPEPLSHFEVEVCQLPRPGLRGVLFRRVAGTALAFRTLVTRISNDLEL
# [24] = target: Calcium/calmodulin-dependent protein kinase kinase 2 (Homo sapiens, UniProt Q96RR4, T85S); assay: Inhibition of recombinant full length human CaMKK2 T85S mutant using calmodulin as substrate incubated for 40 mins in presence of [gamma-33ATP] by radiometric scintillation counting analysis
# [25] = target: Death-associated protein kinase 1 (Homo sapiens, UniProt P53355); assay: Inhibition of recombinant human DAPK1 (1 to 296 residues) using KKLNRTLSFAEPG as substrate incubated 40 mins in presence of [gamma-33ATP] by radiometric scintillation counting analysis
# [26] = Inhibition of human PIP4K2
structure (smiles),measurement,setting,value
CN(C)c1ccc(C(=O)Nc2cccc(NC(=O)COc3ccc4c(=O)ccoc4c3)c2)cc1,IC50,[1],> 10 µM
same,IC50,[2],> 10 µM
same,IC50,[3],> 10 µM
same,IC50,[4],0.003 µM
same,IC50,[5],> 10 µM
same,IC50,[6],> 10 µM
same,IC50,[7],> 10 µM
same,IC50,[8],> 10 µM
same,IC50,[9],> 10 µM
same,IC50,[10],> 10 µM
same,CLint scaled,[11],216 mL/min/kg
same,IC50,[12],> 10 µM
same,IC50,[13],> 10 µM
same,IC50,[14],> 10 µM
same,IC50,[15],> 10 µM
same,IC50,[16],> 10 µM
same,IC50,Ephrin type-B receptor 1,> 10 µM
same,IC50,[17],> 10 µM
same,CLint scaled,[18],2260 mL/min/kg
same,IC50,[19],> 10 µM
same,IC50,[20],> 10 µM
same,IC50,[21],> 10 µM
same,IC50,[22],> 10 µM
same,IC50,[23],> 10 µM
same,IC50,[24],> 10 µM
same,IC50,[25],> 10 µM
same,IC50,[26],> 10 µM
